Assay results taken from paper PMC11544888, “Sustainable Primary Cell Banking for Topical Compound Cytotoxicity Assays: Protocol Validation on Novel Biocides and Antifungals for Optimized Burn Wound Care” (European Burn Journal, 2024).
In brackets after ≈: the same amount, converted by molar mass.

Assays:
[1] = system: HaCaT keratinocytes; assay: In vitro cytotoxicity assay (CellTiter viability) in HaCaT keratinocytes; type: cell-based, human; details: 48 h treatment
Procedure: (§1) All of the samples were prepared on the day of the assays. Each product/stock solution was diluted with CfM or CAM until the desired concentration ranges were obtained for the in vitro cytotoxicity assessments, based on OECD recommendations (i.e., with serial dilutions). The tested CLX- and HOCl-based biocides were used as received, apart from dilution with cell culture medium.
(§2) To perform the cytotoxicity assays, WCB II vials of primary cells and vials of control cell lines (i.e., HaCaT keratinocytes) were thawed and were expanded to confluency. The cells were then harvested and seeded in 24-well plates at densities of 3 × 10^3 and 6 × 10^3 cells/well. The cultures were maintained for 7 days as described previously. The test items were then dispensed in the wells of the culture plates, following dilution in CfM or CAM. […] Regarding the AR-12 antifungal compound, cytotoxicity was assessed for a concentration range of 0.27–139 µM. […]
(§3) After 48 h of cell treatment with the test items, the solutions were removed and a 10% solution of CellTiter® (Promega, Madison, WI, USA) in CfM or CAM was added in every well for assessment of cellular viability. […] The solutions were transferred to a 96-well plate and were analyzed on a Varioskan LUX 3020 spectrophotometer (ThermoFisher Scientific, Waltham, MA, USA) at 490 nm with agitation. […]

[2] = system: primary dermal fibroblasts; assay: In vitro cytotoxicity assay (CellTiter viability) in polydactyly-derived primary dermal fibroblasts; type: cell-based, human
Procedure: All of the samples were prepared on the day of the assays. Each product/stock solution was diluted with CfM or CAM until the desired concentration ranges were obtained for the in vitro cytotoxicity assessments, based on OECD recommendations (i.e., with serial dilutions). The tested CLX- and HOCl-based biocides were used as received, apart from dilution with cell culture medium. To perform the cytotoxicity assays, WCB II vials of primary cells and vials of control cell lines (i.e., HaCaT keratinocytes) were thawed and were expanded to confluency. The cells were then harvested and seeded in 24-well plates at densities of 3 × 10^3 and 6 × 10^3 cells/well. The cultures were maintained for 7 days as described previously. The test items were then dispensed in the wells of the culture plates, following dilution in CfM or CAM. The Vashe® source was tested for cytotoxicity at final HOCl concentrations of 786-6290 μM. The Brio® source was tested for cytotoxicity at final HOCl concentrations of 596-4766 μM. The CLX source was tested for cytotoxicity at final concentrations of 0.2-1978 μM. […] The solutions were transferred to a 96-well plate and were analyzed on a Varioskan LUX 3020 spectrophotometer (ThermoFisher Scientific, Waltham, MA, USA) at 490 nm with agitation. […]

[3] = system: adipose-derived stem cells (ASC); assay: In vitro cytotoxicity assay (CellTiter viability) in polydactyly-derived ASCs; type: cell-based, human
Procedure: as §1, §2, §3

[4] = system: most medically relevant test strains of yeast; set-up: method as in PMID 27088128, PMID 27645246; details: cited from earlier work
[5] = system: cultured cells (HaCaT keratinocytes, primary dermal fibroblasts, ASCs); assay: In vitro cytotoxicity model overall (cell type not given); type: cell-based, human
Procedure: All of the samples were prepared on the day of the assays. Each product/stock solution was diluted with CfM or CAM until the desired concentration ranges were obtained for the in vitro cytotoxicity assessments, based on OECD recommendations (i.e., with serial dilutions). The tested CLX- and HOCl-based biocides were used as received, apart from dilution with cell culture medium. To perform the cytotoxicity assays, WCB II vials of primary cells and vials of control cell lines (i.e., HaCaT keratinocytes) were thawed and were expanded to confluency. The cells were then harvested and seeded in 24-well plates at densities of 3 × 10^3 and 6 × 10^3 cells/well. The cultures were maintained for 7 days as described previously. The test items were then dispensed in the wells of the culture plates, following dilution in CfM or CAM. The Vashe® source was tested for cytotoxicity at final HOCl concentrations of 786-6290 μM. The Brio® source was tested for cytotoxicity at final HOCl concentrations of 596-4766 μM. The CLX source was tested for cytotoxicity at final concentrations of 0.2-1978 μM. […] The retained test item experimental concentrations were selected based on the OECD […] guideline and on high-throughput screening principles. After 48 h of cell treatment with the test items, the solutions were removed and a 10% solution of CellTiter® (Promega, Madison, WI, USA) in CfM or CAM was added in every well for assessment of cellular viability. The plates were then placed in the incubator for 90 min. The solutions were transferred to a 96-well plate and were analyzed on a Varioskan LUX 3020 spectrophotometer (ThermoFisher Scientific, Waltham, MA, USA) at 490 nm with agitation. Following the cytotoxicity model validation in 24-well plates, the same procedure was used for optimization and upscaling in 96-well plates. The culture plates were seeded with 5 × 10^3 cells/well (i.e., for primary cells) and 10^4 cells/well (i.e., for HaCaT keratinocytes) in a CfM volume of 100 μL per well. […]

Structure (SMILES): NCC(=O)Nc1ccc(-n2nc(C(F)(F)F)cc2-c2ccc3c(ccc4ccccc43)c2)cc1 [AR-12]
- IC50 [1]: 9.96 ± 0.35 µM
- cytotoxicity values [2]: 4 to 8 µg/mL
- IC50 ([2]; 48 h treatment, CellTiter viability): 10.7 ± 0.27 µM
- cytotoxicity values [3]: 4 to 8 µg/mL
- MIC [4]: 8 µM (≈ 3.68 µg/mL)

Structure (SMILES): [H]/N=C(\N/C(=N/[H])NCCCCCCNC(=N)NC(=N)Nc1ccc(Cl)cc1)Nc1ccc(Cl)cc1 [CLX, chlorhexidine]
- dilution needed to avoid toxicity in cultured cells ([5]; human, 48 h): 10- and 100

Structure (SMILES): OCl [HOCl, hypochlorous acid]
- comparative in vitro cytotoxicity ([5]; Figures 4-6): less toxicity than CLX
- dose showing in vitro cytotoxicity ([5]; in vitro data gathered herein, 50 times lower than 100–200 ppm in-use doses): 4 µg/mL
